This is an account of results in paper PMC11500415, “Chemical inhibition of stomatal differentiation by perturbation of the master-regulatory bHLH heterodimer via an ACT-Like domain” (Nature Communications, 2024).

The test concerns the target T1, SPCH (Arabidopsis thaliana, UniProt Q700C7).
T1 construct: ΔNSPCH (98-364); made in house; host or cells: E. coli BL21
The test is described as follows: BLI direct binding. Details: species or system A. thaliana.

Setting [1] is: SPCH, Conc. (µM) 3.12, rep-1, rep-2.
[2] abbreviates: SPCH, Conc. (µM) 6.25, rep-1, rep-2.
The mark [3] stands for this setting: SPCH, Conc. (µM) 12.5, rep-1, rep-2.
Where [4] appears, read: SPCH, Conc. (µM) 50, rep-1, rep-2.
Where [5] appears, read: SPCH, Conc. (µM) 100, rep-1, rep-2.
The mark [6] stands for this setting: SPCH, Conc. (µM) 200, rep-1, rep-2.

The structures appear in SMILES notation. Several values for one entry are separate records, joined by “and”; a condition that tells them apart may be missing. Identical values can stand only once. Like-named read-outs stand apart in the source and are kept apart here.

T1 sequence (Q700C7 98-364): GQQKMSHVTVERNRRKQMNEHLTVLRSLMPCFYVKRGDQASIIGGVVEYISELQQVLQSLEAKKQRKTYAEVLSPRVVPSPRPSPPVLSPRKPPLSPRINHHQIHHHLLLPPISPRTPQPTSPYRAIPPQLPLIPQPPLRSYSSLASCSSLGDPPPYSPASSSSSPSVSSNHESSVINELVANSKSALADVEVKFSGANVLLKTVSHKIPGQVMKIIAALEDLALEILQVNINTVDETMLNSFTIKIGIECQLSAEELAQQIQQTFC

In the case of `O=C1C(c2ccccc2)=NC(NS(=O)(=O)c2ccccc2)(c2ccccc2)N1S(=O)(=O)c1ccccc1` (centres unmarked) [Stomidazolone], the Kd (as a rule, the concentration at which binding is half-saturated) reads like this: (BLI steady state, SPCH, read-out: KD (SS)) 85.2 ± 6.8 µM; (BLI, SPCH, read-out: KD) 75.6 ± 0.7 µM; (SPCH loaded on Anti-GST sensor, fit per sensor, Stomid Conc. (µM) 200-3.12, rep-1, rep-2, read-out: KD) 75.4 µM and 76.8 µM and 74.1 µM and 73.1 µM and 74.8 µM and 72.6 µM and 75.2 µM and 76.7 µM and 76.9 µM and 74.4 µM. Where the note is “SPCH loaded on Anti-GST sensor, fit per sensor, Stomid Conc. (mM) 200-3.12, rep-1, rep-2”, the “kdis” value was 0.319 s⁻¹ and 0.323 s⁻¹ and 0.32 s⁻¹ and 0.325 s⁻¹ and 0.33 s⁻¹ and 0.326 s⁻¹. For the same compound, the “kon” value by setting is: (SPCH loaded on Anti-GST sensor, fit per sensor, Stomid Conc. (µM) 200-3.12, rep-1, rep-2) 4280 M⁻¹ s⁻¹ and 4310 M⁻¹ s⁻¹ and 4320 M⁻¹ s⁻¹ and 4400 M⁻¹ s⁻¹ and 4290 M⁻¹ s⁻¹ and 4340 M⁻¹ s⁻¹ and 4360 M⁻¹ s⁻¹; (read-out: kon(1/Ms), SPCH loaded on Anti-GST sensor, fit per sensor, Stomid Conc. (mM) 200-3.12, rep-1, rep-2) 4370 M⁻¹ s⁻¹. Moreover, the RMax is, setting by setting: under setting [1], 0.03 and 0.0213; under setting [2], 0.062 and 0.0321; under setting [3], 0.067 and 0.0781; under setting [4], 0.135 and 0.1621; under setting [5], 0.235 and 0.2711; under setting [6], 0.335 and 0.323. Further, the “Req/Rmax(%)” value is 100% under setting [1]; 97% and 100% under setting [2]; 89% under setting [4]; 98% under setting [6]. Further, the Response under setting [1] was 0.0312 and 0.0213; the Response under setting [2] was 0.0608 and 0.0321; the Response under setting [3] was 0.065 and 0.0781; the Response under setting [4] is 0.1334 and 0.1621; the Response under setting [5] is 0.233 and 0.2711; the Response under setting [6] was 0.3311 and 0.323. For the same compound, the koff (read-out: kdis(1/s), SPCH loaded on Anti-GST sensor, fit per sensor, Stomid Conc. (mM) 200-3.12, rep-1, rep-2) was 0.329 s⁻¹.
